What was measured:
Assay type in all cases: in vivo, human
[1] = tested on: subjects with a primary diagnosis of MDD; test: MDD Study No. 2: safety evaluation (AEs, DESS, laboratory); conditions: for subjects with AEs as reason for discontinuation: on-therapy period, placebo 3%
Procedure: The safety of the two doses was determined using the same assessments as in Example 1. […] Headache was the only TPAE with an incidence≧5% in the placebo group.
The DESS checklist was used to evaluate symptoms that first occurred, or that worsened, during the taper period (the 7-day period after the end of the double-blind treatment period). During this 7-day period, doses of ODV were tapered to 0 mg for subjects in the 50 mg group, and to 50 mg for subjects in the 100 mg group. The DESS checklist was administered to 420 of the 423 subjects who had completed at least 53 days of on-therapy treatment.

[2] = tested on: subjects with a primary diagnosis of MDD; test: MDD Study No. 3: safety evaluation (discontinuations, AEs); conditions: count; for Adverse Event Abnormal Dreams, subjects / Adverse Event Vomiting, subjects: placebo 3 (2); for Adverse Event Constipation, subjects: placebo 4 (3); for Adverse Event Anorexia, subjects / Adverse Event Flu Syndrome, subjects: placebo 5 (3); for Adverse Event Asthenia, subjects / Adverse Event Insomnia, subjects: placebo 6 (4); for Adverse Event Somnolence, subjects: placebo 8 (5); for Adverse Event Nausea, subjects: placebo 14 (9)
Procedure: The safety of the two doses was determined using the same assessments as in Example 1.

[3] = tested on: subjects with a primary diagnosis of MDD; test: MDD Study No. 3: efficacy evaluation, randomized double-blind placebo-controlled study; conditions: for CGI-S score, Δ from Baseline: baseline 4.3, placebo −1.10; for HAM-D6, Δ from Baseline: placebo −4.82; for MADRS total score, Δ from Baseline: placebo −11.0
Procedure: This example describes the results of a third multicenter, randomized, double-blind, placebo-controlled, parallel-group study that was also designed to evaluate the efficacy and safety of 50 and 100 mg/day ODV for treating MDD.
Subjects were male or female adults that met the same criteria as the subjects in Example 1. The administration protocols for 50 or 100 mg/day and placebo groups were the same as in Example 1.
The primary and secondary outcomes were the same as in Example 1 as were the statistical methods. A Global F-test was also used to analyze the results. The purpose of this test was to compare the two fixed doses with placebo to control for Type-I error. Statistical significance is met if the p-value for the Global F-test <0.05, followed by un-adjusted pairwise comparison between either dose and placebo at 0.05 significance level.

[4] = all subjects, 50 and 100 mg/day

## CN(C)CC(c1ccc(O)cc1)C1(O)CCCCC1 (centres unmarked) [ODV, 1-[2-(dimethylamino)-1-(4-phenol)ethyl]-cyclohexanol]
[1]; 50 mg group
  incidence of nausea leading to discontinuation: 1.2%
  incidence of sweating leading to discontinuation: 1.2%
  incidence of vomiting leading to discontinuation: 1.2%
  most common (incidence≧5%) taper/poststudy-emergent AEs: headache, nausea, dizziness, and insomnia
  subjects with clinically important elevated SGPT/ALT levels: another subject
  subjects with AEs as reason for discontinuation: 5%
[1]; 50 mg group, during the 7-day taper period
  p-value, mean DESS scores in comparison with placebo: 0.001
[1]; 50 mg group, number of subjects
  subjects with clinically important increased total cholesterol levels: 1
[1]; 50 mg group, number of subjects, placebo 1
  subjects with clinically important elevated SGOT/AST levels: 1
[1]; 100 mg group
  incidence of anorgasmia in men leading to discontinuation: 2.1%
  incidence of asthenia leading to discontinuation: 1.3%
  incidence of headache leading to discontinuation: 1.3%
  incidence of nausea leading to discontinuation: 3.8%
  most common (incidence≧5%) TPAEs: headache, nausea, depression, dizziness, and vertigo
  subjects with AEs as reason for discontinuation: 7%
[1]; 100 mg group, week after the 7-day taper period
  p-value, mean DESS in comparison with placebo: 0.017
[1]; [4]
  SAEs during the on-therapy period: None of the subjects had SAEs during the on-therapy period
  deaths during the study: No deaths occurred during this study
[2]; 50 mg, n = 148
  Discontinued, reason Adverse Event, subjects: 8 (5)
  Adverse Event Abnormal Dreams, subjects: 5 (3)
  Adverse Event Vomiting, subjects: 2 (1)
  Adverse Event Constipation, subjects: 9 (6)
  Adverse Event Anorexia, subjects: 14 (10)
  Adverse Event Flu Syndrome, subjects: 6 (4)
  Adverse Event Asthenia, subjects: 12 (8)
  Adverse Event Insomnia, subjects: 20 (14)
  Adverse Event Somnolence, subjects: 14 (10)
  Adverse Event Nausea, subjects: 33 (22)
[2]; 100 mg, n = 150
  Discontinued, reason Adverse Event, subjects: 11 (7)
  Adverse Event Abnormal Dreams, subjects: 4 (3)
  Adverse Event Vomiting, subjects: 6 (4)
  Adverse Event Constipation, subjects: 10 (7)
  Adverse Event Anorexia, subjects: 14 (9)
  Adverse Event Flu Syndrome, subjects: 10 (7)
  Adverse Event Asthenia, subjects: 18 (12)
  Adverse Event Insomnia, subjects: 26 (17)
  Adverse Event Somnolence, subjects: 18 (12)
  Adverse Event Nausea, subjects: 35 (23)
[3]; 50 mg/day, LOCF
  HAM-D17 total score, Diff. versus Placebo (95% CI): 1.1 (−0.6, 2.7)
[3]; 50 mg/day, MMRM
  HAM-D17 total score, Diff. versus Placebo (95% CI): 1.4 (−0.0, 2.8)
[3]; 50 mg/day, OC
  HAM-D17 total score, Diff. versus Placebo (95% CI): 1.8 (−0.1, 3.6)
[3]; 50 mg/day
  CGI-S score, Δ from Baseline: −1.25
[3]; 50 mg/day, baseline 12.8
  HAM-D6, Δ from Baseline: −5.41
[3]; 50 mg/day, baseline 30.1
  MADRS total score, Δ from Baseline: −12.7
[3]; 100 mg/day, LOCF
  HAM-D17 total score, Diff. versus Placebo (95% CI): 1.8 (0.2, 3.4)
[3]; 100 mg/day, MMRM
  HAM-D17 total score, Diff. versus Placebo (95% CI): 2.2 (0.7, 3.6)
[3]; 100 mg/day, OC
  HAM-D17 total score, Diff. versus Placebo (95% CI): 2.9 (1.0, 4.7)
[3]; 100 mg/day
  CGI-S score, Δ from Baseline: −1.44
[3]; 100 mg/day, baseline 12.9
  HAM-D6, Δ from Baseline: −6.15
[3]; 100 mg/day, baseline 30.0
  MADRS total score, Δ from Baseline: −14.4
